# Source: patent US20230235301A1, “Compounds and Methods for Treating, Ameliorating, or Preventing Herpes Ocular Keratitis” (THE TRUSTEES OF THE UNIVERSITY OF PENNSYLVANIA, priority 2020, published 2023)
# Where two headings read alike, the source gives them in different places. Positions of bridges follow the written chain, without caps; N, C: chain ends. Non-standard residues stand in square brackets, D forms with d. Residues, ends and D or L forms follow the SMILES beside them. No end group written: not given here. S5 = C=CCCC[C@](C)(N)C(=O)O
# T1: HSV-1 Processivity Factor (UL42) (HSV-1 (strain KOS), UniProt P10226 1-488)
# T1 sequence: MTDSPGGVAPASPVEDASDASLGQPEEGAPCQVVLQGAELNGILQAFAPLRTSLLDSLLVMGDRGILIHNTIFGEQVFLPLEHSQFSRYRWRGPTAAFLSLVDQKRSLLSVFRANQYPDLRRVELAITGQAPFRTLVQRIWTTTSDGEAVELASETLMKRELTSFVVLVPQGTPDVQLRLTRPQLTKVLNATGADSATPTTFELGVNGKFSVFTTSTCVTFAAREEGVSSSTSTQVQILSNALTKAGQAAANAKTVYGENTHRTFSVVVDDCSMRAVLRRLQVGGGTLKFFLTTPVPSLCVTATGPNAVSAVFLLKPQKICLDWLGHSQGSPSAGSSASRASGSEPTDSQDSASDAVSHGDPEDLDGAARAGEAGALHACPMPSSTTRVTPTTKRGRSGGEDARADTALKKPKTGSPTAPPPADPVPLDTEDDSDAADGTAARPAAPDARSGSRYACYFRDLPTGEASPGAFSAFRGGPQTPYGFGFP
# Experiments:
# [1] = target: HSV-1 UL30 DNA Polymerase and UL42 Processivity Factor (Human herpesvirus 1, UniProt P10226); experiment: In vitro processive DNA synthesis assay (ELISA-based Rapid Plate Assay); type: biochemical; conditions: for IC50, µM* (HSV1 UL30+UL42): inhibition of HSV-1 processive DNA synthesis in vitro by UL30 and UL42
# Method: The assay was performed by the enzyme-linked immunosorbent assay (ELISA)-based Rapid Plate Assay (J. Virol. Methods 2000, 88:219-225; Methods Mol. Biol. 2005, 292:481-492; J. Med. Chem. 2008, 51:6563-6570), using in vitro translated viral DNA polymerase and processivity factor.
# Briefly, the assay comprised a 100-nucleotide single-stranded DNA template that has biotin covalently linked to the 5′ end. The biotin-labeled oligonucleotide template was immobilized onto streptavidin, which was coated onto each well of a micro-titer plate. An oligonucleotide primer (15mer) was annealed to the 3′ end of the biotin-labeled DNA template. HSV-1 UL-30 and HSV-1 UL-42 (either in vitro translated or purified) were added and incubated with serial dilutions of the stapled peptides. DNA synthesis was measured by direct incorporation of the 4 dNTPs as well as the signal nucleotide, digoxigenin-dUTP (1:5, dig-dUTP:dTTP). A peroxidase-conjugated anti-digoxigenin antibody that recognizes the newly synthesized DNA generated a colorimetric reaction that was quantified with a plate reader at 405 nm.
# In certain non-limiting embodiments, the shown staples (or tethers), which provide rigidity, had linked-spacing of one full turn (i,i+4) or two full turns (i,i+7) of the helix to stay in helical register (3.6 amino acids/turn). In other embodiments, the staple was on the solvation side of the helix. Residues on the opposite side contact the PF target protein UL42. These UL42 residues are D63, R64 and K289 (FIGS. 13A-13C). Hydrogen bonds between residues of UL42 and C-Pol are shown as dotted lines. The IC50 values recited herein were quantitated using the assay described in U.S. Pat. No. 6,204,028, which is incorporated herein in its entirety by reference (FIG. 14).
# HSV-1 = experiment: microbe, parasite or virus in culture; type: cell-based
# Method: Cells with ~90% confluence in 48-well plates were infected by absorbing virus (~100 PFU/well) for 1 h in 100 µL growth medium followed by adding 200 µL culture medium containing DMSO vehicle or serially diluted peptides or Acyclovir (Tocris Bioscience-Fisher Scientific) to each well of the plate. DMSO was maintained at 1% throughout the treatment. Cells were subsequently fixed and stained with 300 µL PBS containing 4% formaldehyde and 0.2% crystal violet overnight at room temperature. HSV-1 plaques were quantified at ~55 h post-infection of Vero cells. VV (WR strain) infection of BSC-1 cells was analyzed for plaque formation after 24 h. The plaque reduction assays were performed in duplicate and independently repeated twice. Cells were stained, and plaques counted under a dissecting microscope. Data were plotted on the GraphPad Prism.
# Standard viral plaque reduction assays were conducted in Vero cells to determine if any of the five stapled peptides (S-pep1/3/4/7/8) that were able to block processive DNA synthesis, could also block HSV-1 infection. To minimize possible interference of HSV-1 cell attachment and entry by the peptides, cells were first infected by absorbing the virus for 1 h, followed by treatment with peptides at serial dilutions. […] The EC50 values of both S-pep3 and S-pep8 were approximately 100 µM (FIG. 15C and FIG. 15F). Additionally, S-pep4 was toxic at 12.5 µM, which precluded further optimization.
# [2] = target: T1, HSV-1 Processivity Factor (UL42); experiment: cell-based or functional assay
molecule,measurement,setting,value
"CSCC[C@H](NC(=O)[C@H](CCCNC(=N)N)NC(=O)[C@H](CCCNC(=N)N)NC(=O)[C@@H](NC(=O)[C@H](CCC(=O)O)NC(C)=O)[C@@H](C)O)C(=O)N[C@@H](CC(C)C)C(=O)N[C@@H](Cc1c[nH]cn1)C(=O)N[C@@H](CCCNC(=N)N)C(=O)N[C@@H](C)C(=O)N[C@@H](Cc1ccccc1)C(=O)N[C@@H](CC(=O)O)C(=O)N[C@H](C(=O)N[C@@H](CC(C)C)C(=O)N[C@@H](C)C(=O)O)[C@@H](C)O [N-pep, Ac-ETRRMLHRAFDTLA, reference compound]",IC50,[1],> 200 µM
same,"IC50, µM* (HSV1 UL30+UL42)",[1]; listed as Non-stapled,no inhibition
same,"IC50, µM* (HSV1 UL30+UL42)",[1]; listed as native (unstapled) C-Pol peptide,fails to inhibit
same,EC50,HSV-1; 1 h,> 200 µM
"CC(=O)N[C@@]1(C)CCCC=CCCC[C@@](C)(C(=O)N[C@@H](CC(C)C)C(=O)N[C@@H](Cc2c[nH]cn2)C(=O)N[C@@H](CCCNC(=N)N)C(=O)N[C@@H](C)C(=O)N[C@@H](Cc2ccccc2)C(N)=O)NC(=O)[C@H](CCCNC(=N)N)NC(=O)[C@H](CCCNC(=N)N)NC(=O)[C@H]([C@@H](C)O)NC1=O [S-pep2, Ac-XTRRXLBRAF-NH2] (Ac-[S5]TRR[S5]LHRAF-NH2; staple 1-5)",IC50,[1],> 200 µM
"CC(=O)N[C@@]1(C)CCCC=CCCC[C@@](C)(C(=O)N[C@@H](CC(C)C)C(=O)N[C@@H](Cc2c[nH]cn2)C(=O)N[C@@H](CCCNC(=N)N)C(=O)N[C@@H](C)C(=O)N[C@@H](Cc2ccccc2)C(=O)N[C@@H](CC(=O)O)C(=O)N[C@H](C(=O)N[C@@H](CC(C)C)C(=O)N[C@@H](C)C(=O)O)[C@@H](C)O)NC(=O)[C@H](CCCNC(=N)N)NC(=O)[C@H](CCCNC(=N)N)NC(=O)[C@H]([C@@H](C)O)NC1=O [S-pep1, Ac-XTRRXLHRAFDTLA] (Ac-[S5]TRR[S5]LHRAFDTLA-OH; staple 1-5; C-terminus assumed)","IC50, µM* (HSV1 UL30+UL42)",[1],successfully inhibits
same,EC50,HSV-1; 1 h,43 µM
"CC(=O)N[C@@H](C)C(=O)N[C@@H](CCC(=O)O)C(=O)N[C@@]1(C)CCCC=CCCC[C@@](C)(C(=O)N[C@@H](CC(C)C)C(=O)N[C@@H](Cc2c[nH]cn2)C(=O)N[C@@H](CCCNC(=N)N)C(=O)N[C@@H](C)C(=O)N[C@@H](Cc2ccccc2)C(=O)N[C@@H](CC(=O)O)C(=O)N[C@H](C(=O)N[C@@H](CC(C)C)C(=O)N[C@@H](C)C(=O)O)[C@@H](C)O)NC(=O)[C@H](CCCNC(=N)N)NC(=O)[C@H](CCCNC(=N)N)NC(=O)[C@H]([C@@H](C)O)NC1=O [S-pep3, Ac-AEXTRRXLHRAFDTLA] (Ac-AE[S5]TRR[S5]LHRAFDTLA-OH; staple 3-7; C-terminus assumed)",EC50,HSV-1; 1 h,~100 µM
"CSCC[C@@H]1NC(=O)[C@H](CCCNC(=N)N)NC(=O)[C@H](CCCNC(=N)N)NC(=O)[C@@](C)(NC(C)=O)CCCC=CCCC[C@@](C)(C(=O)N[C@@H](Cc2c[nH]cn2)C(=O)N[C@@H](CCCNC(=N)N)C(=O)N[C@@H](C)C(=O)N[C@@H](Cc2ccccc2)C(=O)N[C@@H](CC(=O)O)C(=O)N[C@H](C(=O)N[C@@H](CC(C)C)C(=O)N[C@@H](C)C(=O)O)[C@@H](C)O)NC1=O [S-pep5, Ac-XRRMXHRAFDTLA] (Ac-[S5]RRM[S5]HRAFDTLA-OH; staple 1-5)",IC50,[1],> 200 µM
same,"IC50, µM* (HSV1 UL30+UL42)",[1],failed to inhibit
"Nc1nc2c(ncn2COCCO)c(=O)[nH]1 [Acyclovir, reference compound]",EC50,"HSV-1; Human alphaherpesvirus 1, Vero cells, peptides added after 1 h virus absorption, plaques counted at ~55 h, read-out: EC50, inhibition of HSV-1 plaque formation",0.81 µM
"CC(=O)N[C@@H](CCC(=O)O)C(=O)N[C@H](C(=O)N[C@@H](CCCNC(=N)N)C(=O)N[C@@H](CCCNC(=N)N)C(=O)N[C@@]1(C)CCCC=CCCC[C@@](C)(C(=O)N[C@@H](Cc2ccccc2)C(=O)N[C@@H](CC(=O)O)C(=O)N[C@H](C(=O)N[C@@H](CC(C)C)C(=O)N[C@@H](C)C(=O)O)[C@@H](C)O)NC(=O)[C@H](CCCNC(=N)N)NC(=O)[C@H](Cc2c[nH]cn2)NC(=O)[C@H](CC(C)C)NC1=O)[C@@H](C)O [S-pep7, Ac-ETRRXLHRXFDTLA] (Ac-ETRR[S5]LHR[S5]FDTLA-OH; staple 5-9; C-terminus assumed)",EC50,HSV-1; 1 h,35.5 µM
"CSCC[C@H](NC(=O)[C@H](CCCNC(=N)N)NC(=O)[C@H](CCCNC(=N)N)NC(=O)[C@@H](NC(=O)[C@H](CCC(=O)O)NC(C)=O)[C@@H](C)O)C(=O)N[C@@H](CC(C)C)C(=O)N[C@@H](Cc1c[nH]cn1)C(=O)N[C@@]1(C)CCCC=CCCC[C@@](C)(C(=O)N[C@@H](CC(C)C)C(=O)N[C@@H](C)C(=O)O)NC(=O)[C@H](CC(=O)O)NC(=O)[C@H](Cc2ccccc2)NC(=O)[C@H](C)NC1=O [S-pep8, Ac-ETRRMLHXAFDXLA] (Ac-ETRRMLH[S5]AFD[S5]LA-OH; staple 8-12; C-terminus assumed)",EC50,HSV-1; 1 h,~100 µM
Ac-RTRR[S5]LHR[S5]FDTLA (staple 5-9) [S-pep7C],"IC50, µM (HSV1 UL30+UL42); HSV-1 DNA synthesis inhibition",[2],1.7 µM
Ac-ETRRMLH[S5]AFD[S5]LA (staple 8-12) [S-pep8],"IC50, µM (HSV1 UL30+UL42); HSV-1 DNA synthesis inhibition",[2],20.7 µM
Ac-ETRR[S5]LHR[S5]FDTLA (staple 5-9) [S-pep7],"IC50, µM (HSV1 UL30+UL42); HSV-1 DNA synthesis inhibition",[2],5.5 µM
Ac-VTRR[S5]LHR[S5]FDTLA (staple 5-9) [S-pep7A],"IC50, µM (HSV1 UL30+UL42); HSV-1 DNA synthesis inhibition",[2],1.7 µM
Ac-[S5]RRM[S5]HRAFDTLA (staple 1-5) [S-pep5],"IC50, µM (HSV1 UL30+UL42); HSV-1 DNA synthesis inhibition",[2],> 200 µM
Ac-[S5]TRR[S5]LHRAF-NH2 (staple 1-5) [S-pep2],"IC50, µM (HSV1 UL30+UL42); HSV-1 DNA synthesis inhibition",[2],> 200 µM
Ac-VVTRR[S5]LHR[S5]FDTLA (staple 6-10) [S-pep7B],"IC50, µM (HSV1 UL30+UL42); HSV-1 DNA synthesis inhibition",[2],1 µM
Ac-AE[S5]TRR[S5]LHRAFDTLA (staple 3-7) [S-pep3],"IC50, µM (HSV1 UL30+UL42); HSV-1 DNA synthesis inhibition",[2],12.7 µM
Ac-RRTRR[S5]LHR[S5]FDTLA (staple 6-10) [S-pep7D],"IC50, µM (HSV1 UL30+UL42); HSV-1 DNA synthesis inhibition",[2],2 µM
Ac-[S5]TRR[S5]LHRAFDTLA (staple 1-5) [S-pep1],"IC50, µM (HSV1 UL30+UL42); HSV-1 DNA synthesis inhibition",[2],12 µM
